Measured values published in PubChem BioAssay (NCI).
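96-well plates; 48 h exposure; 5 concentrations. Endpoints by linear interpolation between flanking doses. Not reached: highest tested concentration assigned. TGI is the concentration that stops growth completely.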

Columns and labels:
Assay in all cases: NCI anticancer screen, dose series, 48 h
[1] = system: OVCAR-5 ovarian
[2] = system: MALME-3M melanoma
[3] = system: RXF 393 renal
[4] = system: HT29 colon
[5] = system: NCI-H226 lung
[6] = system: KM12 colon
[7] = system: HOP-92 NSCLC
[8] = system: MCF7 breast
[9] = system: ACHN renal
[10] = system: HCT-15 colon
[11] = system: T-47D breast
[12] = system: HCT-116 colon
[13] = system: HL-60(TB) leukemia

Row | Structure (SMILES) | TGI [1] [µM] | TGI [2] [µM] | TGI [3] [µM] | TGI [4] [µM] | TGI [5] [µM] | TGI [6] [µM] | TGI [7] [µM] | TGI [8] [µM] | TGI [9] [µM] | TGI [10] [µM] | TGI [11] [µM] | TGI [12] [µM] | TGI [13] [µM]
1 | COc1cc(C2c3cc4c(cc3OC(N3CCOCC3)C2C)OCO4)cc(OC)c1OC (stereo not given) | > 65.7 | > 100 | 1.22 | 7.51 | 11.2 | 14 | 60.2 | > 77 | 50.3 | > 40.3 | > 100 | 12.7 | –
2 | Cc1cc(NS(=O)(=O)c2ccc(NC(=O)c3cccc4c(NNc5ccc(S(N)(=O)=O)cc5)c5ccccc5nc34)cc2)no1 | > 100 | > 100 | > 100 | 73.2 | 91.7 | > 100 | 82 | > 100 | > 100 | > 100 | > 100 | > 100 | 76.5
3 | CCOC(=O)c1[nH]n(-c2ccccc2)c(=O)c1C=NC(=S)C(N)=S | > 100 | > 100 | 65.1 | > 100 | > 100 | > 100 | > 100 | > 100 | 64.8 | > 100 | 41.8 | 44.6 | > 100
4 | COc1cc(OC)c(NC2=NCCO2)cc1Cl | > 100 | > 100 | > 100 | 47.8 | 75.6 | 39.1 | – | > 100 | > 100 | > 100 | > 100 | 94.5 | > 100
5 | COc1cc(C(c2cc(OC)c(OC)c(OC)c2)N2C(=O)CCC2C(=O)O)cc(OC)c1OC (stereo not given) | > 100 | > 100 | > 100 | > 100 | > 100 | > 100 | > 100 | > 100 | > 100 | > 100 | > 100 | > 100 | > 100
6 | Cc1ccc(N2C(=O)C(O)=C(C(=O)C(C)(C)C)C2c2ccc([N+](=O)[O-])cc2)cc1 (stereo not given) | > 100 | 46 | – | 37.3 | 43.3 | 67.3 | 59.5 | 37.6 | 45.9 | 47.4 | 52.5 | 29.4 | 33.9
7 | COc1ccc(-c2cc(-c3ccc(Nc4ccnc5cc(C(F)(F)F)ccc45)cc3)[nH]c(=O)c2C#N)cc1 | > 100 | > 100 | > 53.5 | > 80.4 | > 70.9 | > 100 | > 100 | > 100 | > 100 | > 100 | > 100 | > 100 | > 100
8 | Nc1nc(SCc2ccccc2[N+](=O)[O-])c2[nH]cnc2n1 | > 100 | > 67.4 | > 94 | > 100 | 97.5 | > 100 | 9.06 | > 100 | > 100 | > 100 | 74.1 | > 100 | > 86.1
9 | C[N+](C)(N)Cc1csc(-c2ccc(Cl)cc2)n1 | > 100 | > 100 | > 100 | > 100 | > 100 | > 100 | > 100 | > 100 | > 100 | > 100 | > 100 | > 100 | –
10 | O=c1[nH]c2cc([N+](=O)[O-])c(N(CCO)CCO)c([N+](=O)[O-])c2[nH]1 | > 100 | > 100 | 49.4 | > 100 | 71.4 | 93.3 | > 100 | > 100 | > 100 | > 100 | 80.5 | 87.5 | 80.9
11 | CC1(C)N=C(/C(C#N)=[N+](/[O-])C(=O)c2ccccc2)C(C)(C)N1O | > 100 | > 100 | > 100 | > 100 | > 100 | > 100 | > 100 | > 100 | > 100 | > 100 | > 100 | > 100 | > 100
12 | CNc1nc(=O)c(C#N)c(-c2ccc(C)cc2)s1 | > 100 | > 100 | > 100 | > 100 | > 100 | > 100 | > 100 | > 100 | > 100 | > 100 | > 100 | > 100 | > 100
13 | O=S(=O)(Nc1nc(-c2cc(O)c(O)c(O)c2)cs1)c1ccc(Cl)cc1Cl | 33.4 | > 100 | 71.4 | 51.2 | > 100 | 31.1 | > 100 | 36.1 | 28.1 | 33 | 41.1 | 40.1 | > 100
14 | CCCCCCCCCCOC1C(C(C)OCCCN(C)C)OC2OC3(CCCCC3)OC21 (stereo not given) | 25.2 | 29.5 | 31 | 11 | 38.1 | – | 16.3 | 42.8 | 31.4 | 17.5 | 35.7 | 26.4 | 20.7
15 | CC(C(O)c1ccccc1)[N+](=O)[O-] (stereo not given) | 65.6 | 48.4 | 27.7 | 71.8 | 48.3 | 50.6 | – | 40.1 | 33.7 | 43.4 | 59.5 | > 100 | 44.6
16 | COC(=O)C(Cc1ccccc1)NC(=O)C(CCCN=C(N)N)NC(=O)OCc1ccccc1 (stereo not given) | > 100 | > 100 | > 100 | > 100 | > 100 | > 100 | > 100 | > 100 | > 100 | > 100 | > 100 | > 100 | > 100
17 | CNC(=O)C(NC(=O)[C@H](CC(C)C)NC(=O)[C@@H](S)CCN1C(=O)N(C)C(C)(C)C1=O)C(C)(C)C (stereo not given in full) | > 100 | > 100 | > 100 | > 100 | > 100 | > 100 | > 100 | > 100 | > 100 | > 100 | > 100 | > 100 | > 100

Row | Structure (SMILES) | TGI [1] [µM] | TGI [2] [µM] | TGI [3] [µM] | TGI [4] [µM] | TGI [5] [µM] | TGI [6] [µM] | TGI [7] [µM] | TGI [8] [µM] | TGI [9] [µM] | TGI [10] [µM] | TGI [11] [µM] | TGI [12] [µM] | TGI [13] [µM]
18 | CCN(CC)CCNc1ccc2nnn3c4ccc(OC(C)=O)cc4c(=O)c1c23 | 24 | 16.3 | 6.19 | 11.4 | 7.62 | 15.4 | 17.7 | 16.2 | 12.9 | 13.6 | 31.1 | > 37.5 | –
19 | CC1=NN(c2cccc(Cl)c2)C2(C1)SCC(=O)N2c1nc2ccccc2s1 (stereo not given) | > 100 | > 100 | 44.9 | 63.8 | 37.1 | 69.2 | > 100 | > 100 | 79.9 | > 100 | 84.4 | 36.7 | 43.1
20 | O=C(OCc1c(-c2ccccc2)nn(-c2ccccc2)c1COC(=O)Oc1ccccc1)Oc1ccccc1 | > 100 | > 100 | > 100 | > 100 | > 100 | > 100 | > 100 | > 100 | > 100 | > 100 | > 100 | > 100 | > 100
21 | CC1(C)C(C(=O)OC(C#N)c2cccc(OCC(=O)OCc3ccccc3)c2)C1(C)C (stereo not given) | > 100 | > 100 | > 100 | > 100 | > 100 | > 100 | > 100 | > 100 | > 100 | > 100 | > 100 | > 100 | 22.9
22 | O=C(O)C1(CC(CCCN2CCCCC2)c2ccccc2)CCCC1 (stereo not given) | > 100 | > 100 | > 100 | > 100 | > 100 | > 100 | > 100 | > 100 | > 100 | > 100 | > 100 | > 100 | > 100
23 | O=C(Nc1ccc(Cl)cc1)c1cc(S(=O)(=O)NC2=NC(c3ccccc3)c3cc(Cl)ccc3N2)c(SSc2cc(Cl)c(C(=O)Nc3ccc(Cl)cc3)cc2S(=O)(=O)NC2=NC(c3ccccc3)c3cc(Cl)ccc3N2)cc1Cl (stereo not given) | > 100 | > 100 | > 100 | > 100 | > 100 | > 100 | > 100 | > 100 | > 100 | > 100 | > 100 | > 100 | > 42.6
24 | CN(C)Cc1cc(C(=O)/C=C/c2c(F)cccc2Cl)cc(CN(C)C)c1O | 36.2 | 25.7 | 12.6 | 23.7 | 30.8 | 30.4 | 20.3 | 20.2 | 15.4 | 19.1 | 33.4 | 16.2 | 8.49
25 | CN1CCN(CCCCNc2cc3c4ccccc4c(NCCCCN4CCN(C)CC4)cc3c3ccccc23)CC1 | 12.5 | 5.09 | 3.13 | 4.19 | 45.4 | 3.06 | 28.2 | 2.71 | 17.3 | 2.88 | 84.2 | 2.13 | 14.9
26 | Nc1ccc(S(=O)(=O)c2ccc(N=[N+]([O-])c3ccc(S(=O)(=O)c4ccc(N)cc4)cc3)cc2)cc1 | > 100 | > 100 | 57.8 | > 100 | 92.2 | > 100 | 38.4 | > 100 | > 100 | > 100 | > 100 | > 100 | > 100
27 | CCOC(=S)SC/C(=N\OC(C)(C)OC)c1ccccc1 | > 100 | 75.9 | 70 | 58.3 | > 100 | > 100 | 63.8 | > 100 | > 100 | > 100 | 63.1 | 77.5 | 54.7
28 | CC(=N\N=C\c1ccccn1)/C(C)=N/N=C/c1ccccn1 | > 100 | > 100 | > 100 | > 100 | > 100 | > 100 | > 100 | > 100 | > 100 | > 100 | > 100 | > 100 | > 100
29 | CCOc1ccc(C(c2c(O)c3ccccc3oc2=O)c2c(O)c3ccccc3oc2=O)cc1 | > 100 | > 100 | – | > 100 | > 100 | > 100 | 65.1 | > 100 | > 100 | > 100 | > 100 | > 100 | 50.2
30 | CCC(C)N1CN(c2ccccc2)C2(CCN(CCCC(=O)c3ccc(F)cc3)CC2)C1=O (stereo not given) | 8.12 | 27.8 | 30 | 2.35 | – | – | – | 11.5 | 9.73 | 17.9 | 15.9 | 3.16 | 46
31 | Cc1cc2nc(NS(=O)(=O)c3cc(C)c(Cl)cc3S)[nH]c2cc1C | > 100 | > 100 | > 100 | > 100 | – | > 100 | > 100 | > 100 | > 100 | > 100 | > 100 | > 100 | > 100
32 | O=C(O)C1Cc2ccccc2OC1=O (stereo not given) | > 100 | > 100 | > 100 | > 100 | > 100 | > 100 | – | > 100 | > 100 | > 100 | > 100 | > 100 | –
33 | Cc1noc(C)c1N=Nc1ccc2nonc2c1N | > 100 | > 100 | > 100 | > 100 | – | > 100 | > 100 | > 100 | > 100 | > 100 | > 100 | > 100 | > 100
34 | O=C1CSC(c2c(O)ccc3ccccc23)N1n1c(=S)[nH]nc(/C=C/c2c(O)ccc3ccccc23)c1=O (stereo not given) | 38.1 | 16.8 | 13.7 | 36.6 | – | – | 65.3 | 18.9 | 11.2 | 23.2 | 15.1 | 16.6 | 0.874
